# From publication PMC7312375, “A Novel, Pan-PDE Inhibitor Exerts Anti-Fibrotic Effects in Human Lung Fibroblasts via Inhibition of TGF-β Signaling and Activation of cAMP/PKA Signaling” (International Journal of Molecular Sciences, 2020)
# What was measured:
# Assay type in all cases: cell-based, human
# MRC-5 cells [1] = assay: TGF-β1-induced collagen gel contraction assay; conditions: 10 µM, 1 h pre-incubation, 6 h TGF-β1; compared to TGF-β1 alone
# Description: A collagen cell contraction assay was performed according to manufactures’ instructions (Cell Biolabs, INC., San Diego, CA, USA). Briefly, MRC-5 was harvested and mixed with a collagen solution. After polymerization, collagen gel lattices were cultured for two days, during which mechanical tension develops. Before releasing the stressed matrix, MRC-5 cells were pre-treated with study compounds (10 µM) for 1 h. Then collagen gels were gently released from the sides of the culture dishes and contraction in the presence of study compounds, and TGF-β1 was initiated. The collagen gel size was monitored at various time points and quantified with the Fiji ImageJ Software (National Institutes of Health, Bethesda, MD, USA, version 1.52q). The experiments were run three times.
# MRC-5 cells [2] = assay: cAMP ELISA; conditions: 10 µM, 30 min
# Description: MRC-5 cells were seeded in standard culture medium for 24 h and then serum-starved for 2 h in HBSS. The study compounds (10 µM) were added to the MRC-5 cultures and after 30 min of incubation, the intracellular cAMP level in cell lysates was measured using a colorimetric cAMP ELISA Kit according to the manufacturer’s protocol (Cell Biolabs, INC., San Diego, CA, USA). Obtained results were normalized to total protein content in each sample. The experiments were run two times in duplicates.
# [3] = system: TGF-β1-induced MRC-5 cells; assay: Protein kinase A activity; conditions: 10 µM 30 min, then TGF-β1 30 min
# Description: Protein Kinase A (PKA) activity in MRC-5 cells was determined using a PKA Colorimetric Activity Kit (Invitrogen, Carlsbad, CA, USA) according to the manufacturer’s protocol. MRC-5 cells were seeded in standard culture medium, and after 48 h they were serum-starved for 2 h in HBSS, followed by the addition of study compounds (10 µM) and incubation for 30 min. Finally, TGF-β1 was administered, and the samples were incubated for an additional 30 min. Whole cell lysates were used in the assay. The amount of PKA was normalized to the total protein content in each sample. The experiments were run two times in duplicates.
# [4] = system: TGF-β1-induced MRC-5 cells; assay: Western blot of p-CREB; conditions: 10 µM
# Description: Western Blot analysis was performed according to a standard protocol. Briefly, MRC-5 cells were pre-incubated with the study compounds (10 µM) for 1 h, followed by 48 h incubation with TGF-β1 and then lysed in RIPA buffer (RIPA Lysis and Extraction Buffer, Thermo Fisher Scientific, Waltham, MA, USA) and supplemented with protease inhibitor cocktail and phosphatase inhibitor cocktail (both from Sigma Aldrich, St. Louis, MO, USA). Equal amounts of protein (30 µg) were separated using 10% SDS-polyacrylamide gels and transferred onto polyvinylidene difluoride (PVDF) membranes (Thermo Fisher Scientific, Waltham, MA, USA). […] ROD was measured according to the NIH guidelines with Fiji ImageJ Software. […]
# [5] = system: TGF-β1-induced MRC-5 cells; assay: Immunofluorescence, nuclear localization of p-CREB; conditions: 10 µM
# Description: For immunocytochemical labeling, MRC-5 cells were seeded on glass coverslips. Study compounds (10 µM) were added 1 h before TGF-β1 treatment, and analysis was performed after 1 h (p-Smad-2 and p-CREB detection) or 48 h (α-SMA detection) of incubation. Cells were fixed in methanol or 4% formaldehyde solution, permeabilized in 0.2% or 0.1% Triton X-100 solution (for p-Smad-2 and p-CREB or α-SMA, respectively). After incubation in blocking solution the following primary antibodies: rabbit polyclonal, anti-phospho-Smad-2 (Ser465, Ser467) antibody (#44-244G, Thermo Fisher Scientific, Waltham, MA, USA); rabbit polyclonal, anti-phospho-CREB1 (Ser133) antibody (#orb213775, Biorbyt, Cambridge, United Kingdom); mouse monoclonal, anti-α-SMA antibody (#MA5-11547, Thermo Fisher Scientific, Waltham, MA, USA) and secondary antibodies: goat anti-rabbit Alexa Fluor 546 conjugated antibody and goat anti-mouse Alexa Fluor 488 conjugated antibody (#A-11010 and #A-11001, respectively, Invitrogen, Carlsbad, CA, USA) were used. Nuclei were counterstained with Hoechst 33342 dye (Thermo Fisher Scientific, Waltham, MA, USA). Slides were mounted in ProLong™ Glass Antifade Mountant (Invitrogen, Carlsbad, CA, USA) and analyzed using Leica DMiL LED Fluo microscope (for α-SMA and p-CREB visualization, 40× objective) or Leica DMi8 with Thunder Imaging System (for p-Smad-2 visualization, 40× objective), all equipped with LAS-X Software (Leica Microsystems GmbH, Wetzlar, Germany). Experiments were run four times using five randomly selected fields of view, at the same fluorescent time exposure and in a blind-folded manner.
compound,measurement,setting,value
"C=C[C@@]1(C)CC(=O)[C@]2(O)[C@@]3(C)[C@@H](O)CCC(C)(C)[C@@H]3[C@H](O)[C@H](OC(C)=O)[C@@]2(C)O1 [forskolin, reference compound]",size of collagen gel lattices (TGF-β1-induced contraction),MRC-5 cells [1],showed similar properties as 145 or IBMX
same,increase in cAMP level compared to control,MRC-5 cells [2],5.7 fold
same,Protein kinase A activity in TGF-β1-induced fibroblasts,[3],the highest
same,CREB phosphorylation (immunoblot),[4],increased CREB phosphorylation
same,elevation of fraction of MRC-5 cells with nuclear p-CREB localization,[5],76%
